Experimental data taken from patent publication US7381714B2, “A1 adenosine receptor agonists” (CV Therapeutics, Inc., priority 2005, dated 2008).
pKi: −log10 of the molar value.

Key:
[1] = biological target: T1, A1 adenosine receptor (Mesocricetus auratus, UniProt A0A1U8BVR4); assay: Competitive radioligand binding assay, DDT cell membranes; set-up: species or system hamster; settings: membranes of DDT cells; tritiated radioligand 1.5 nM; 23° C. 90 minutes; read-out: A1 BINDING AFFINITY Ki
T1 sequence (A0A1U8BVR4 1-326): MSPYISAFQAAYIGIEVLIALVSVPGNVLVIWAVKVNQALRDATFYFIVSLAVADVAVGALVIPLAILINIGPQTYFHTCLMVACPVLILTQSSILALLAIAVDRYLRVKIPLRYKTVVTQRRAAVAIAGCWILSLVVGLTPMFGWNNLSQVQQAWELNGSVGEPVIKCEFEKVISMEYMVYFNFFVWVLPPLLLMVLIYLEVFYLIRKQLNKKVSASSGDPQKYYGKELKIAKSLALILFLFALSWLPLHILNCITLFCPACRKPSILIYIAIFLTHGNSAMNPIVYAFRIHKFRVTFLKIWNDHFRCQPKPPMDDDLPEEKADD
Experimental: DDT cells (hamster vas deferens smooth muscle cell line) were grown as monolayers in petri dishes using Dulbecco's Modified Eagle's Medium (DMEM) containing 2.5 μg mL^−1 amphotericin B, 100 U mL^−1 penicillin G, 0.1 mg mL^−1 streptomycin sulfate and 5% fetal bovine serum in a humidified atmosphere of 95% air and 5% CO2. Cells were subcultured twice weekly by dispersion in Hank's Balanced Salt Solution (HBSS) without the divalent cations and containing 1 mM EDTA. The cells were then seeded in growth medium at a density of 1.2×10^5 cells per plate and experiments were performed 4 days later at approximately one day preconfluence.
Attached cells were washed twice with HBSS (2×10 mL), scraped free of the plate with the aid of a rubber policeman in 5 mL of 50 mM Tris-HCl buffer pH 7.4 at 4° C. and the suspension was homogenized for 10 s. The suspension was then centrifuged at 27,000×g for 10 min. The pellet was resuspended in homogenization buffer by vortexing and centrifuged again as described above. The final pellet was resuspended in 1 vol of 50 mM Tris-HCl buffer pH 7.4 containing 5 mM MgCl2 for A1 adenosine receptor assays. For the [^35S]GTPγS binding assay the final pellet was resuspended in 50 mM Tris-HCl pH 7.4 containing 5 mM MgCl2, 100 mM NaCl and 1 mM dithiothreitol. This membrane suspension was then placed in liquid nitrogen for 10 min and stored at −80° C. Aliquots of the membrane suspension were later thawed and used for assays. The protein content was determined with a BradfordTm Assay Kit using bovine serum albumin as standard.
Compounds of Formula I were assayed by use of competitive radioligand binding methods to determine their affinity for the A1 adenosine receptor sites on the membranes of DDT cells. […] The amount of radioactivity retained on the filters was determined by liquid scintillation spectrometry. […]

[2] = cited from earlier work

pKi [1] | SMILES | half-life [2]
8.52 | CCOC(=O)c1cn(-c2nc(NC3CCCC3)c3ncn([C@@H]4O[C@H](CO)[C@@H](O)[C@H]4O)c3n2)nn1 [II., ethyl 1-{9-[(4S,3R,5R)-3,4-dihydroxy-5-(hydroxymethyl)oxolan-2-yl]-6-(cyclopentylamino)purin-2-yl}-1,2,3-triazole-4-carboxylate] | 
 | Nc1ncnc2c1ncn2[C@@H]1O[C@H](CO)[C@@H](O)[C@H]1O [adenosine] | less than 10 sec
7.80 | NC(=O)c1cn(-c2nc(NC3CCCC3)c3ncn([C@@H]4O[C@H](CO)[C@@H](O)[C@H]4O)c3n2)nn1 [IV., 1-{9-[(4S,3R,5R)-3,4-dihydroxy-5-(hydroxymethyl)oxolan-2-yl]-6-(cyclopentylamino)purin-2-yl}-1,2,3-triazole-4-carboxamide] | 
8.70 | CNC(=O)c1cn(-c2nc(NC3CCCC3)c3ncn([C@@H]4O[C@H](CO)[C@@H](O)[C@H]4O)c3n2)nn1 [III., (1-{9-[(4S,3R,5R)-3,4-dihydroxy-5-(hydroxymethyl)oxolan-2-yl]-6-(cyclopentylamino)purin-2-yl}(1,2,3-triazol-4-yl))-N-methylcarboxamide] | 
